Measured values reported in the supplement of paper PMC6965134.
± gives the standard deviation of the averaged measurements.

Experiment: TIMS collisional cross section (CCS, N2) of the lipid ion; higher = larger ion cross section
Details: ionization mode: positive, one isomer drawn

| SMILES | TIMS collisional cross section (sample type: HeLa) [Å²] | TIMS collisional cross section (sample type: Liver) [Å²] | TIMS collisional cross section (sample type: plasma) [Å²] |
| --- | --- | --- | --- |
| CCCCCC/C=C\CCCCCCCCCC(=O)O[C@H](COC(=O)CCCCCCCCCCCCCCC)COP(=O)(O)OC[C@H](N)C(=O)O [PS 16:0_18:1@] (ion (formula + adduct): [C40H76NO10P+H] 1+) | 282.1 |  |  |
| CCCCCCCCCCCCCCCCC(=O)O[C@@H](CO)COC(=O)CCCCCCCCCCCCCCC [DG 16:0_17:0_0:0] (ion (formula + adduct): [C36H70O5+NH4] 1+) | 262.1 ± 0.42 |  |  |
| CCCCCCCCCCCCCC/C=C\OC[C@H](COP(=O)(O)OCCN)OC(=O)CCCCCCCCCCCCCCC [PE P- 16:0_16:0] (ion (formula + adduct): [C37H74NO7P+H] 1+) | 272 |  |  |
| CCCCC/C=C\C/C=C\CCCCCCCC(=O)O[C@@H](CO)COC(=O)CCCCCCCCCCCCC [DG 14:0_18:2_0:0] (ion (formula + adduct): [C35H64O5+NH4] 1+) |  | 252 |  |
| CCCCCCCCCCCCC/C=C/[C@@H](O)[C@H](CO[C@@H]1OC(CO)[C@@H](O[C@@H]2OC(CO)[C@H](O)[C@H](O)C2O)[C@H](O)C1O)NC(=O)CCCCCCCCCCCCCCC (some centres undefined) [GlcCer d18:1_16:0] (ion (formula + adduct): [C46H87NO13+H] 1+) | 304.1 |  |  |
| CCCCC/C=C\C=C\CCCCCCCCC(=O)O[C@H](COC(=O)CCCCCCCCCCCCCCC)COP(=O)([O-])OCC[N+](C)(C)C [PC 16:0_18:2] (ion (formula + adduct): [C42H80NO8P+H] 1+) |  | 286.3 | 282.45 ± 2.8 |
| CC/C=C\C/C=C\C/C=C\C/C=C\C/C=C\C/C=C\CCC(=O)O[C@H](COC(=O)CCC/C=C\C/C=C\C/C=C\C/C=C\CCCCC)COP(=O)(O)OCCN [PE 20:4@_22:6] (ion (formula + adduct): [C47H74NO8P+H] 1+) | 284.8 | 284.4 |  |
| CCCCCCCCCCCCCCCC(=O)O[C@H](COC(=O)CCCCCCCCCCCCC)COP(=O)([O-])OCC[N+](C)(C)C [PC 14:0_16:0] (ion (formula + adduct): [C38H76NO8P+H] 1+) | 280.6 |  |  |
| CC/C=C\C/C=C\C/C=C\C/C=C\C/C=C\C/C=C\CCC(=O)OC[C@@H](COC(=O)CCCCCCCCCCCCCCC)OC(=O)CC/C=C\C/C=C\C/C=C\C/C=C\C/C=C\C/C=C\CC [TG 16:0_22:6_22:6] (ion (formula + adduct): [C63H98O6+NH4] 1+) |  | 331.6 |  |
| CCCCCCCCCCC/C=C\CCCCC(=O)O[C@H](CO)COP(=O)([O-])OCC[N+](C)(C)C [LPC 18:1] (ion (formula + adduct): [C26H52NO7P+H] 1+) |  |  | 231.9 |
| CCCCC/C=C\C/C=C\C/C=C\C/C=C\CCCC(=O)O[C@H](COC(=O)CCCC/C=C\C/C=C\C/C=C\CCCCC)COP(=O)([O-])OCC[N+](C)(C)C [PC 18:3_20:4] (ion (formula + adduct): [C46H78NO8P+H] 1+) |  | 286.7 |  |
| CCCCCCCCCCCCC/C=C/[C@@H](O)[C@H](CO)NC(=O)CCCCCCCCCCCCCCCCCCCCCCCC [Cer d18:1_25:0@] (ion (formula + adduct): [C43H85NO3+H] 1+) |  | 284.1 |  |
| CCCCCCCCCCCCC/C=C/[C@@H](O)[C@H](CO)NC(=O)CCCCCCCCCCCCCCCCCCCCC [Cer d18:1_22:0@] (ion (formula + adduct): [C40H79NO3+H] 1+) | 274.3 | 274.9 |  |
| CCCCC/C=C\C/C=C\C/C=C\C/C=C\CCCC(=O)OC[C@@H](O)COP(=O)(O)OC[C@H](N)C(=O)O [LPS 20:4] (ion (formula + adduct): [C26H44NO9P+H] 1+) |  | 221.9 |  |
| CCCC/C=C\CCCCCCCC(=O)OC[C@H](COP(=O)([O-])OCC[N+](C)(C)C)OC(=O)CCCCCCC/C=C\CCCCCC [PC 14:1@_16:1] (ion (formula + adduct): [C38H72NO8P+H] 1+) | 272.4 |  |  |

Continued, values first:

| TIMS collisional cross section (sample type: HeLa) [Å²] | TIMS collisional cross section (sample type: Liver) [Å²] | TIMS collisional cross section (sample type: plasma) [Å²] | SMILES |
| --- | --- | --- | --- |
|  | 328.8 |  | CCCCCCC/C=C\CCCCCCCC(=O)OC[C@H](COC(=O)CCCCCCCCCCCCCCCCCC)OC(=O)CCCCCCC/C=C\CCCCCCCC [TG 17:1_18:1_19:0] (ion (formula + adduct): [C57H106O6+NH4] 1+) |
| 285.5 | 285.6 |  | CC/C=C\C/C=C\C/C=C\C/C=C\C/C=C\C/C=C\CCC(=O)O[C@H](COC(=O)CCCCCCCCCCCCCCCCC)COP(=O)(O)OCCN [PE 18:0_22:6] (ion (formula + adduct): [C45H78NO8P+H] 1+) |
| 329.1 |  |  | CCCCCCCC/C=C\CCCCCCCC(=O)OC[C@H](COC(=O)CCCCCCC/C=C\CCCCCCCCC)OC(=O)CCCCCCC/C=C\CCCCCCCC [TG 18:1_18:1_19:1] (ion (formula + adduct): [C58H106O6+NH4] 1+) |
|  | 300.5 |  | CC/C=C\C/C=C\C/C=C\C/C=C\C/C=C\C/C=C\CCC(=O)O[C@H](COC(=O)CCCCCCCCCCCCCCCCCC)COP(=O)([O-])OCC[N+](C)(C)C [PC 19:0@_22:6] (ion (formula + adduct): [C49H86NO8P+H] 1+) |
|  | 282 | 282 | CCCCC/C=C\C/C=C\C/C=C\CCCCC(=O)O[C@H](COC(=O)CCCCCCCCCCCCCCC)COP(=O)([O-])OCC[N+](C)(C)C [PC 16:0_18:3] (ion (formula + adduct): [C42H78NO8P+H] 1+) |
|  |  | 325.5 | CCCCCCCC/C=C\CCCCCCCC(=O)OC[C@@H](COC(=O)CCCCCCCCCCCCCCCC)OC(=O)CCCCCCC/C=C\CCCCCCCC [TG 17:0_18:1_18:1] (ion (formula + adduct): [C56H104O6+NH4] 1+) |
|  | 290.9 |  | CCCCC/C=C\C/C=C\C/C=C\C/C=C\CCCC(=O)O[C@H](COC(=O)CCCCCCC/C=C\C/C=C\CCCCC)COP(=O)([O-])OCC[N+](C)(C)C [PC 18:2@_20:4] (ion (formula + adduct): [C46H80NO8P+H] 1+) |
|  |  | 329 | CC/C=C\C/C=C\C/C=C\C/C=C\C/C=C\C/C=C\CCC(=O)OC[C@@H](COC(=O)CCCCCCC/C=C\CCCCCCCC)OC(=O)CCCCCCC/C=C\C/C=C\CCCCC [TG 18:1_18:2_22:6] (ion (formula + adduct): [C61H100O6+NH4] 1+) |
| 315.2 |  | 315.47 ± 0.058 | CCCCCCCC/C=C\CCCCCCCC(=O)OC[C@@H](COC(=O)CCCCCCCCCCCCCC)OC(=O)CCCCCCCCCCCCCCC [TG 15:0_16:0_18:1] (ion (formula + adduct): [C52H98O6+NH4] 1+) |
|  | 327.9 |  | CC/C=C\C/C=C\C/C=C\C/C=C\C/C=C\CCCCCC(=O)OC[C@@H](COC(=O)CCCCCCC/C=C\C/C=C\CCCCC)OC(=O)CCCCCCC/C=C\C/C=C\CCCCC [TG 18:2_18:2_22:5] (ion (formula + adduct): [C61H100O6+NH4] 1+) |
|  | 325.6 |  | CCCCCCC/C=C\CCCCCCCC(=O)OC[C@H](COC(=O)CCCCCCC/C=C\CCCCCCCC)OC(=O)CCCCCCCCCCCCCCCCC [TG 17:1_18:0_18:1] (ion (formula + adduct): [C56H104O6+NH4] 1+) |
| 294.9 |  |  | CCCC/C=C\CCCCCCCCCCCC(=O)O[C@H](COC(=O)CCCCCCCCCCCCCCCCCCCCC)COP(=O)(O)OCCN [PE 22:0_18:1@] (ion (formula + adduct): [C45H88NO8P+H] 1+) |
|  | 334.9 | 333.8 | CCCCC/C=C\C/C=C\C/C=C\C/C=C\CCCCCC(=O)OC[C@@H](COC(=O)CCCCCCC/C=C\CCCCCCCC)OC(=O)CCCCCCC/C=C\CCCCCCCC [TG 18:1_18:1_22:4] (ion (formula + adduct): [C61H106O6+NH4] 1+) |
| 289 | 289.1 | 289.1 | CCCCCCCCCCCCCC(=O)OC[C@@H](COC(=O)CCCCCCCCCCC)OC(=O)CCCCCCCCCCCCC [TG 12:0_14:0_14:0] (ion (formula + adduct): [C43H82O6+NH4] 1+) |
| 298.2 | 298.5 | 298.4 ± 0.14 | CCCCCCCCCCCCCCCC(=O)OC[C@@H](COC(=O)CCCCCCCCCCCC)OC(=O)CCCCCCCCCCCCC [TG 13:0_14:0_16:0] (ion (formula + adduct): [C46H88O6+NH4] 1+) |
|  | 309.02 ± 0.29 | 309.2 | CCCCCC/C=C\CCCCCCCC(=O)OC[C@@H](COC(=O)CCCCCCCCCCCCCC)OC(=O)CCCCCCCCCCCCCCC [TG 15:0_16:0_16:1] (ion (formula + adduct): [C50H94O6+NH4] 1+) |
| 308 |  |  | CCCCCCCCCCCCCCCCC(=O)OC[C@@H](COC(=O)CCCCCCCCCCCC)OC(=O)CCCCCCCCCCCCCCC [TG 13:0_16:0_17:0] (ion (formula + adduct): [C49H94O6+NH4] 1+) |
| 317.5 | 317.6 | 317.6 | CCCCCCCCCCCCCCCCC(=O)OC[C@@H](COC(=O)CCCCCCCCCCCCCCC)OC(=O)CCCCCCCCCCCCCCC [TG 16:0_16:0_17:0] (ion (formula + adduct): [C52H100O6+NH4] 1+) |
|  | 278.5 |  | CCCCCCCC/C=C\CCCCCCCCCCCC(=O)O[C@@H](CO)COC(=O)CCCCCCC/C=C\CCCCCCCC [DG 18:1_22:1_0:0] (ion (formula + adduct): [C43H80O5+NH4] 1+) |
| 305 |  |  | CCCCCCCCCCCCCCCC(=O)OC[C@@H](COC(=O)CCCCCCCCCCCC)OC(=O)CCCCCCCCCCCCCCC [TG 13:0_16:0_16:0] (ion (formula + adduct): [C48H92O6+NH4] 1+) |
